Patent US8192962B2, “Processes for detecting toxic substances” (Daikin Industries, Ltd., priority 2001, dated 2012)

Test system: Energy system protein genes
Test: DNA chip mRNA expression in yeast, energy system protein genes (Table 4)
Assay type: cell-based, Saccharomyces cerevisiae S288C
In short: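 Measured as treated-to-untreated fluorescence ratio on a full-genome yeast DNA chip. Cells (S288C, YPD, 25° C.) were exposed in log phase for two hours to one chemical, dosed to curb growth without killing.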

SMILES: CCCCCCCCCCCCOS(=O)(=O)[O-].[Na+] [(18), sodium lauryl sulfate]
- The level of expressed mRNA in the presence of chemical substance/The level of expressed mRNA in the absence of chemical substance (yeast gene YAL060W): 1.8
- The level of expressed mRNA in the presence of chemical substance/The level of expressed mRNA in the absence of chemical substance (yeast gene YBL058W, cells incubated two hours with the chemical substance): 1.4
- The level of expressed mRNA in the presence of chemical substance/The level of expressed mRNA in the absence of chemical substance (yeast gene YBL099W, cells incubated two hours with the chemical substance): 1.2
- The level of expressed mRNA in the presence of chemical substance/The level of expressed mRNA in the absence of chemical substance (yeast gene YBR001C, cells incubated two hours with the chemical substance): 1.6
- The level of expressed mRNA in the presence of chemical substance/The level of expressed mRNA in the absence of chemical substance (yeast gene YBR185C, cells incubated two hours with the chemical substance): 1.3
- The level of expressed mRNA in the presence of chemical substance/The level of expressed mRNA in the absence of chemical substance (yeast gene YBR221C, cells incubated two hours with the chemical substance): 1.0
- The level of expressed mRNA in the presence of chemical substance/The level of expressed mRNA in the absence of chemical substance (yeast gene YCL040W): 1.7
- The level of expressed mRNA in the presence of chemical substance/The level of expressed mRNA in the absence of chemical substance (yeast gene YCR012W): 1.3
- The level of expressed mRNA in the presence of chemical substance/The level of expressed mRNA in the absence of chemical substance (yeast gene YCR046C, cells incubated two hours with the chemical substance): 1.0
- The level of expressed mRNA in the presence of chemical substance/The level of expressed mRNA in the absence of chemical substance (yeast gene YCR105W, cells incubated two hours with the chemical substance): 1.1
- The level of expressed mRNA in the presence of chemical substance/The level of expressed mRNA in the absence of chemical substance (yeast gene YDL021W): 3.2
- The level of expressed mRNA in the presence of chemical substance/The level of expressed mRNA in the absence of chemical substance (yeast gene YDL067C, cells incubated two hours with the chemical substance): 1.7
- The level of expressed mRNA in the presence of chemical substance/The level of expressed mRNA in the absence of chemical substance (yeast gene YDL078C, cells incubated two hours with the chemical substance): 2.0
- The level of expressed mRNA in the presence of chemical substance/The level of expressed mRNA in the absence of chemical substance (yeast gene YDL107W, cells incubated two hours with the chemical substance): 1.5
- The level of expressed mRNA in the presence of chemical substance/The level of expressed mRNA in the absence of chemical substance (yeast gene YDL174C): 4.0
- The level of expressed mRNA in the presence of chemical substance/The level of expressed mRNA in the absence of chemical substance (yeast gene YDL181W, cells incubated two hours with the chemical substance): 1.4
- The level of expressed mRNA in the presence of chemical substance/The level of expressed mRNA in the absence of chemical substance (yeast gene YDR001C): 1.6
- The level of expressed mRNA in the presence of chemical substance/The level of expressed mRNA in the absence of chemical substance (yeast gene YDR050C, cells incubated two hours with the chemical substance): 2.3
- The level of expressed mRNA in the presence of chemical substance/The level of expressed mRNA in the absence of chemical substance (yeast gene YDR079W, cells incubated two hours with the chemical substance): 1.3
- The level of expressed mRNA in the presence of chemical substance/The level of expressed mRNA in the absence of chemical substance (yeast gene YDR178W, cells incubated two hours with the chemical substance): 2.3
- The level of expressed mRNA in the presence of chemical substance/The level of expressed mRNA in the absence of chemical substance (yeast gene YDR231C): 1.3
- The level of expressed mRNA in the presence of chemical substance/The level of expressed mRNA in the absence of chemical substance (yeast gene YDR298C, cells incubated two hours with the chemical substance): 1.6
- The level of expressed mRNA in the presence of chemical substance/The level of expressed mRNA in the absence of chemical substance (yeast gene YDR377W, cells incubated two hours with the chemical substance): 2.5
- The level of expressed mRNA in the presence of chemical substance/The level of expressed mRNA in the absence of chemical substance (yeast gene YDR529C, cells incubated two hours with the chemical substance): 2.3
- The level of expressed mRNA in the presence of chemical substance/The level of expressed mRNA in the absence of chemical substance (yeast gene YEL024W, cells incubated two hours with the chemical substance): 1.5
- The level of expressed mRNA in the presence of chemical substance/The level of expressed mRNA in the absence of chemical substance (yeast gene YEL039C, cells incubated two hours with the chemical substance): 1.1
- The level of expressed mRNA in the presence of chemical substance/The level of expressed mRNA in the absence of chemical substance (yeast gene YER178W): 0.9
- The level of expressed mRNA in the presence of chemical substance/The level of expressed mRNA in the absence of chemical substance (yeast gene YFL057C): 1.3
- The level of expressed mRNA in the presence of chemical substance/The level of expressed mRNA in the absence of chemical substance (yeast gene YFR053C): 2.2
- The level of expressed mRNA in the presence of chemical substance/The level of expressed mRNA in the absence of chemical substance (yeast gene YGL018C, cells incubated two hours with the chemical substance): 1.0
- The level of expressed mRNA in the presence of chemical substance/The level of expressed mRNA in the absence of chemical substance (yeast gene YGL062W): 0.9
- The level of expressed mRNA in the presence of chemical substance/The level of expressed mRNA in the absence of chemical substance (yeast gene YGL187C, cells incubated two hours with the chemical substance): 2.4
- The level of expressed mRNA in the presence of chemical substance/The level of expressed mRNA in the absence of chemical substance (yeast gene YGL191W, cells incubated two hours with the chemical substance): 1.7
- The level of expressed mRNA in the presence of chemical substance/The level of expressed mRNA in the absence of chemical substance (yeast gene YGL205W, cells incubated two hours with the chemical substance): 9.1
- The level of expressed mRNA in the presence of chemical substance/The level of expressed mRNA in the absence of chemical substance (yeast gene YGL256W, cells incubated two hours with the chemical substance): 0.8
- The level of expressed mRNA in the presence of chemical substance/The level of expressed mRNA in the absence of chemical substance (yeast gene YGR008C): 4.2
- The level of expressed mRNA in the presence of chemical substance/The level of expressed mRNA in the absence of chemical substance (yeast gene YGR043C): 4.8
- The level of expressed mRNA in the presence of chemical substance/The level of expressed mRNA in the absence of chemical substance (yeast gene YGR062C, cells incubated two hours with the chemical substance, 25° C., YPD medium): 1.1
- The level of expressed mRNA in the presence of chemical substance/The level of expressed mRNA in the absence of chemical substance (yeast gene YGR087C, cells incubated two hours with the chemical substance): 0.6
- The level of expressed mRNA in the presence of chemical substance/The level of expressed mRNA in the absence of chemical substance (yeast gene YGR174C, cells incubated two hours with the chemical substance): 2.3
- The level of expressed mRNA in the presence of chemical substance/The level of expressed mRNA in the absence of chemical substance (yeast gene YGR192C): 1.3
- The level of expressed mRNA in the presence of chemical substance/The level of expressed mRNA in the absence of chemical substance (yeast gene YGR244C): 3.1
- The level of expressed mRNA in the presence of chemical substance/The level of expressed mRNA in the absence of chemical substance (yeast gene YGR254W): 1.2
- The level of expressed mRNA in the presence of chemical substance/The level of expressed mRNA in the absence of chemical substance (yeast gene YHR179W): 1.6
- The level of expressed mRNA in the presence of chemical substance/The level of expressed mRNA in the absence of chemical substance (yeast gene YIL160C): 3.0
- The level of expressed mRNA in the presence of chemical substance/The level of expressed mRNA in the absence of chemical substance (yeast gene YIR031C, cells incubated two hours with the chemical substance): 0.8
- The level of expressed mRNA in the presence of chemical substance/The level of expressed mRNA in the absence of chemical substance (yeast gene YJL052W): 1.9
- The level of expressed mRNA in the presence of chemical substance/The level of expressed mRNA in the absence of chemical substance (yeast gene YJL121C, cells incubated two hours with the chemical substance): 1.0
- The level of expressed mRNA in the presence of chemical substance/The level of expressed mRNA in the absence of chemical substance (yeast gene YJL166W, cells incubated two hours with the chemical substance): 4.0
- The level of expressed mRNA in the presence of chemical substance/The level of expressed mRNA in the absence of chemical substance (yeast gene YJL216C, cells incubated two hours with the chemical substance): 2.0
